Experimental findings from publication PMC8238920, “Functional inhibition of lactate dehydrogenase suppresses pancreatic adenocarcinoma progression” (Clinical and Translational Medicine, 2021) are described below.

The test has as its target T1, lactate dehydrogenase A (LDHA) (Homo sapiens, UniProt P00338).
T1 construct: his-tag LDHA human recombinant protein (Cat. No. 71081, BPS Bioscience)
Put plainly: SPR (Biacore T200, LDHA immobilized on CM5 chip, berberine […]). The format is binding.

As to `COc1ccc2cc3[n+](cc2c1OC)CCc1cc2c(cc1-3)OCO2` [BBR, berberine], the Kd (commonly a measure of binding affinity in units of concentration) came out at 4.59 µM.
